In brackets after ≈: the same amount, converted by molar mass.

One test deals with K. pneumonia HSD. As to the kind of experiment: microbe, parasite or virus in culture. The arrangement: species or system bacterial strains.
Conditions: not given
For `CO/N=C(\C(=O)N[C@@H]1C(=O)N2C(C(=O)[O-])=C(C[N+]3(C)CCCC3)CS[C@H]12)c1csc(N)n1` [Cefepime], the “MIC (μg/mL)^a / K. pneumonia HSD” value worked out at 128 µg/mL (≈ 266 µM).

Staying with this test, now noted: Klebsiella pneumoniae, read-out: MIC (μg/mL)^a / K. pneumonia HSD.
`NCC[C@H](O)C(=O)N[C@@H]1C[C@H](N)[C@@H](O[C@H]2O[C@H](CN)[C@@H](O)[C@H](O)[C@H]2O)[C@H](O)[C@H]1O[C@H]1O[C@H](CO)[C@@H](O)[C@H](N)[C@H]1O` [Amikacin]: the MIC was more than 128 µg/mL.

With `CC1(C)S[C@@H]2[C@H](NC(=O)[C@H](N)c3ccc(O)cc3)C(=O)N2[C@H]1C(=O)O` [Amoxicillin], the MIC is more than 32 µg/mL.

Regarding `C[C@@H](O)[C@H]1C(=O)N2C(C(=O)O)=C(S[C@@H]3CN[C@H](C(=O)Nc4cccc(C(=O)O)c4)C3)[C@H](C)[C@H]12` [Ertapenem], the MIC was 32 µg/mL (≈ 67.3 µM).

With `C[C@@H](O)[C@H]1C(=O)N2C(C(=O)O)=C(S[C@@H]3CN[C@H](C(=O)N(C)C)C3)[C@H](C)[C@H]12` [Meropenem], the MIC was 4 µg/mL (≈ 10.4 µM).

For the molecule `CC(C)(O/N=C(\C(=O)N[C@@H]1C(=O)N2C(C(=O)[O-])=C(C[n+]3ccccc3)CS[C@H]12)c1csc(N)n1)C(=O)O` [ceftazidime], the MIC is more than 128 µg/mL.

The record behind these values is paper PMC11172257 (Emerging Microbes & Infections, 2024).
